Results from patent publication US11739053B2, “P62-ZZ chemical inhibitor” (ID4PHARMA, LLC, priority 2011, dated 2023).

How the values were obtained:
[1] = system: GFP-labeled human myeloma MM1.S cells; test: GFP-labeled MM1.S myeloma cell growth with/without stromal cells, fluorescence microscopy; type: cell-based; conditions: 10 μM, 72 hours
Experimental: FIG. 3 is a graph depicting MM cell growth inhibition. Data is shown as the mean±SD (n=5). *: P<0.01 compared to no-inhibitor cultures without stromal cells. **: P<0.01 compared to no-treatment co-cultured with stromal cells.
Compound 3 was tested for its capacity to block MM-stimulated signaling in marrow stromal cells, thereby resulting in less bone destruction and MM growth. The effects of the compound 3 on GFP-labeled MM1.S myeloma cell growth with/without stromal cells, IL-6 and VCAM-1 expression on stromal cells induced by TNF-α and OCL formation, and TNF-α induced PKCζ phosphorylation, the specific kinase enzyme activated p62-ZZ, were examined. GFP-labeled MM1.S myeloma cells or normal human CFU-GM, a source of OCL precursors, were then co-cultured with human stromal cells with the p62-ZZ inhibitor. The 10 μM of inhibitor compound 3 blocked MM cell growth by 90% compared to vehicle (0.1% DMSO). […] VCAM-1 expression and IL-6 production induced by TNF-α on stromal cells was blocked by 30% and 90% respectively compared to vehicle levels. Furthermore, TNF-α induced PKC, phosphorylation blocked was in stromal cells and MM1.S when pre-treated with this p62-ZZ inhibitory compound for 3 hours.
Primary human bone marrow stromal cells were maintained in 10% FCS-IMDM. Stromal cells (1.5×10^3 cells/well) were cultured one day prior to the start of co-culture. Green fluorescent protein (GFP)-labeled human myeloma MM1.S cells (7.5×10^3 cells/well) were then cultured with/without stromal cells in the presence or absence of the p62-ZZ inhibitors (#1-6) for 72 hours. MM cell growth was determined by fluorescence microscopy.

MM1.S cells = test: TUNEL apoptosis detection in MM1.S cells; type: cell-based, human; conditions: 10 μM, after 24 hours
Experimental: FIG. 9A-C: 9A. […] MM1.S cells were cultured with 10 μM of p62-ZZ antagonist for the indicated time, and then cell lysates were collected. Caspase 9, 7 and 3 were detected by Western blotting using anti-caspase 9, 7 and 3 specific antibodies (Cell Signaling). FIG. 9B. Detection of Apoptosis using the TUNEL reaction with MM1.S cells treated with p62-ZZ antagonist. MM1.S cells were treated with 10/μM of p62-ZZ antagonist #3 for 24 hours and then the cells were collected and mounted on glass slides using the cytospin procedure. Terminal deoxynucleotidyl transferase nick end labeling (TUNEL) reactions were conducted using an In Situ Cell Death Detection Kit (Roche) according to the manufacturer's instructions. The stained cells were analyzed using a fluorescence microscope equipped with standard green filter. FIG. 9C. The p62-ZZ antagonist induced Reactive Oxygen Species in MM1.S cells. MM1.S cells were treated with 10 μM of p62-ZZ antagonist #3 for 6 hours. Cells were collected and stained for Reactive Oxygen Species (ROS) using a Total ROS detection kit (Enzo) according to the manufacturer's instructions. The expression of apoptosis markers in p62-ZZ antagonist treated on 25 MM cells was determined to determine the mechanism action of this antagonist.

[2] = system: CD138(+) primary myeloma cells; test: CD138(+) primary myeloma cell proliferation, MTT assay; type: cell-based, human; conditions: 48 h, FIG. 4B
Experimental: FIG. 4A-C: 4A. Effect of p62-ZZ inhibitor #3 on myeloma cell growth. MM cell growth was assayed by MTT assay. Data are shown as mean±SD (n=5). FIG. 4B. MTT assay of CD138(+) primary myeloma cells. Data are shown as mean±SD (n=5). FIG. 4C. Effects of p62-ZZ inhibitors on human stromal cell growth. Primary human stromal cells (5×10^3/well) were cultured with 10 μM of p62-ZZ inhibitor (#1-6) containing 10% FCS in IMDM for 48 hours. Stromal cells growth was assayed by MTT assay. Data are shown as the mean±SD (n=5). *P<0.01 compared to vehicle treated culture. MM1.S (3×10^5 cells/well) or CD138 (+) (1×10^5 cells/well) primary myeloma cells were incubated in 96-well plates in the presence of RPMI-1640-10% FCS and various concentrations of p62-ZZ inhibitor #3 at 37° C. 5% CO2 for 48 h to determine the IC50 for inhibiting myeloma cell proliferation.

[3] = Exploratory metabolic studies
[4] = In vivo toxicity, single dose and multidose MTD study
Experimental: (§1) FIG. 10A-D: 10A. Single dose acute toxicity study by Up/Down Methods. Body weights of the mice following dosing. FIG. 10B. Mean body weights of mice during multidose MTD study. Data are shown as mean±SD for 5 mice. FIG. 10C. Median body weight of mice during multidose MTD study. FIG. 10D. Plasma concentrations p62-ZZ antagonist in pilot mice after 100 mg/kg IV.
(§2) Preliminary in vivo studies of the p62-ZZ antagonist #3 were performed 5 to determine the toxicity, multiple doses MTD and plasma concentration of the antagonist given IV. For the pilot PK study the prototype p62-ZZ antagonist (compound #3) was used as an internal standard for Mass spectroscopy assays.

in vivo = conditions: mouse, iv
Experimental: as §1, §2

OCCNCc1ccc(OCc2ccccc2)c(OCc2ccccc2)c1 [Compound 3, 2-[[3,4-bis(phenylmethoxy)phenyl]methylamino]ethanol]
MM cell growth (result in words) ([1]; FIG. 3): directly blocked MM cell growth
MM cell growth blocked compared to vehicle ([1]; vs vehicle (0.1% DMSO)): 90%
TUNEL staining of cells (MM1.S cells): positive TUNEL staining
growth of CD138(+) primary myeloma cells (result in words) [2]: directly inhibited
distinct peaks in metabolic studies (likely hydroxylation or glucuronidation) [3]: 3
effect on body weight ([4]; doses up to 100 mg/kg, single dose or qdx5/day, up to 20 days): no effect
gross pathology of brain, liver, kidney tissue ([4]; mice of the in vivo studies): no gross pathology
half-life (in vivo): 4 h
